# Data from patent US10934298B2, “Substituted pyrazolo[1,5-a]pyrimidines for the treatment of medical disorders” (BIAL—BioTech Investments, Inc., priority 2016, dated 2021).
# Target: T1, glucocerebrosidase (Gcase) (Homo sapiens, UniProt P04062)
# T1 construct: micellar solution containing 10 nM GCase and 100 nM saposin C
# T1 sequence (P04062 40-536): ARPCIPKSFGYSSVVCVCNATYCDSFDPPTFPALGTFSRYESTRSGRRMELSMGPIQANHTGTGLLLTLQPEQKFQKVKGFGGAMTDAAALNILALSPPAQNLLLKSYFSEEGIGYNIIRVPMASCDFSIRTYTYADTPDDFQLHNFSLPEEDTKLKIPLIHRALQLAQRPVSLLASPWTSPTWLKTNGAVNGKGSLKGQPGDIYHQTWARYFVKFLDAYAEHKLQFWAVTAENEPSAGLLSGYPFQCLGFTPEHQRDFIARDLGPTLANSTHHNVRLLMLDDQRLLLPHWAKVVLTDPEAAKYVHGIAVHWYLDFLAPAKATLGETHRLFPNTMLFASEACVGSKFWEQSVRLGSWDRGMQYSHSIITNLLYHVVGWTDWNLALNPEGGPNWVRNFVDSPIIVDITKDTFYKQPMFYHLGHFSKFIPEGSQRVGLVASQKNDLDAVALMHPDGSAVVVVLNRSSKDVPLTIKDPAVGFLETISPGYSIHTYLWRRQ
# Assay: Glucocerebrosidase (Gcase) activation assay with 4-methylumbelliferyl-beta-D-glucopyranoside substrate, saposin C and phosphatidylserine/triton micelles, fluorescence readout
# Assay type: biochemical
# Summary of the method: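 Fluorescence (ex 365 nm, em 440 nm) read after glycine pH 12.5 stop of a 15 min room-temperature reaction. GCase 10 nM plus saposin C 100 nM in PS/triton micelles, pH 4.7, preincubated 30 min with compound; substrate solution held 2 mM 4-MU-beta-glucoside. Screened at 1.0 and 0.1 μM; 8-point, 3-fold curves from 5 μM top.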
Structure (SMILES),"Percent Gcase Activation, 0.1 μM Test Compound (0.1 μM test compound, Table 3A)","Percent Gcase Activation, 1 μM Test Compound (1 μM test compound, Table 3A)","Percent Gcase Activation, 0.1 μM Test Compound (test compound at 0.1 μM)","Percent Gcase Activation, 1 μM Test Compound (test compound at 1.0 μM)"
Cc1cc(-c2ccc(F)nc2)nc2c(C(=O)NC(C3CC3)C(F)(F)F)cnn12 (stereo not drawn) [III-84],*** (greater than 20% Gcase activation),+++ (Gcase activation greater than 60%),–,–
Cc1cc(-c2cccnc2F)nc2c(C(=O)NC(C3CC3)C(F)(F)F)cnn12 (stereo not drawn) [III-85],*** (greater than 20% Gcase activation),+++ (Gcase activation greater than 60%),–,–
Cc1cc(-c2ccc(F)cc2)nc2c(C(=O)N[C@H](C)C3CC3)cnn12 [III-86],–,–,** (Gcase activation in the range of 10% up to 20%),+++ (Gcase activation greater than 60%)
Cc1cc(-c2cccnc2)nc2c(C(=O)N[C@H](C)C3CC3)cnn12 [III-87],–,–,* (less than 10% Gcase activation),+ (less than 30% Gcase activation)
Cc1cc(-c2cccnc2)nc2c(C(=O)N[C@H](C3CC3)C(F)(F)F)cnn12 [III-88],–,–,*** (greater than 20% Gcase activation),+++ (Gcase activation greater than 60%)
Cc1cc(-c2cccnc2)nc2c(C(=O)N[C@@H](C3CC3)C(F)(F)F)cnn12 [III-89],–,–,** (Gcase activation in the range of 10% up to 20%),+++ (Gcase activation greater than 60%)
COc1cccc(-c2cc(C)n3ncc(C(=O)N[C@H](C)C(F)(F)F)c3n2)c1 [III-90],–,–,*** (greater than 20% Gcase activation),+++ (Gcase activation greater than 60%)
COc1cccc(-c2cc(C)n3ncc(C(=O)N[C@@H](C)C(F)(F)F)c3n2)c1 [III-91],–,–,*** (greater than 20% Gcase activation),+++ (Gcase activation greater than 60%)
Cc1cc(-c2cccc(F)c2)nc2c(C(=O)N[C@H](C)C3CC3)cnn12 [III-92],–,–,*** (greater than 20% Gcase activation),+++ (Gcase activation greater than 60%)
Cc1cc(-c2cccc(C#N)c2)nc2c(C(=O)N[C@H](C)C3CC3)cnn12 [III-93],–,–,** (Gcase activation in the range of 10% up to 20%),+++ (Gcase activation greater than 60%)
Cc1cc(N2CCCC(F)(F)C2)nc2c(C(=O)N[C@H](C3CC3)C(F)(F)F)cnn12 [III-94],–,–,*** (greater than 20% Gcase activation),+++ (Gcase activation greater than 60%)
Cc1cc(N2CCCC(F)(F)C2)nc2c(C(=O)N[C@@H](C3CC3)C(F)(F)F)cnn12 [III-95],–,–,*** (greater than 20% Gcase activation),+++ (Gcase activation greater than 60%)
C#CC(NC(=O)c1cnn2c(C)cc(-c3cccc(OC)c3)nc12)C(F)(F)F (stereo not drawn) [III-96],–,–,*** (greater than 20% Gcase activation),+++ (Gcase activation greater than 60%)
COc1ccc(F)c(-c2cc(C)n3ncc(C(=O)N[C@H](C)C(F)(F)F)c3n2)c1 [III-97],–,–,** (Gcase activation in the range of 10% up to 20%),+++ (Gcase activation greater than 60%)
COc1ccc(F)c(-c2cc(C)n3ncc(C(=O)N[C@@H](C)C(F)(F)F)c3n2)c1 [III-98],–,–,*** (greater than 20% Gcase activation),+++ (Gcase activation greater than 60%)
C#CC(NC(=O)c1cnn2c(C)cc(-c3cccc(Cl)c3)nc12)C(F)(F)F (stereo not drawn) [III-99],–,–,*** (greater than 20% Gcase activation),++ (Gcase activation in the range of 30% up to 60%)
Cc1cc(-c2ccns2)nc2c(C(=O)N[C@H](C3CC3)C(F)(F)F)cnn12 [III-100],–,–,*** (greater than 20% Gcase activation),+++ (Gcase activation greater than 60%)
Cc1cc(-c2ccns2)nc2c(C(=O)N[C@@H](C3CC3)C(F)(F)F)cnn12 [III-101],–,–,*** (greater than 20% Gcase activation),+++ (Gcase activation greater than 60%)
Cc1cc(-c2cccc(-c3ncc[nH]3)c2)nc2c(C(=O)NC(C3CC3)C(F)(F)F)cnn12 (stereo not drawn) [III-102],–,–,* (less than 10% Gcase activation),+ (less than 30% Gcase activation)
Cc1cc(-c2cccc(Oc3ncccn3)c2)nc2c(C(=O)NC(C3CC3)C(F)(F)F)cnn12 (stereo not drawn) [III-103],–,–,* (less than 10% Gcase activation),+++ (Gcase activation greater than 60%)
Cc1cc(-c2cccc3ncoc23)nc2c(C(=O)NC(C3CC3)C(F)(F)F)cnn12 (stereo not drawn) [III-104],–,–,*** (greater than 20% Gcase activation),+++ (Gcase activation greater than 60%)
Cc1cc(-c2cccc3ocnc23)nc2c(C(=O)NC(C3CC3)C(F)(F)F)cnn12 (stereo not drawn) [III-106],–,–,*** (greater than 20% Gcase activation),++ (Gcase activation in the range of 30% up to 60%)
Cc1cc(-n2ccc(Cl)n2)nc2c(C(=O)NC(C3CC3)C(F)(F)F)cnn12 (stereo not drawn) [III-107],–,–,*** (greater than 20% Gcase activation),+++ (Gcase activation greater than 60%)
Cc1cc(-c2ccc3ocnc3c2)nc2c(C(=O)NC(C3CC3)C(F)(F)F)cnn12 (stereo not drawn) [III-108],–,–,*** (greater than 20% Gcase activation),+++ (Gcase activation greater than 60%)
Cc1cc(-c2ccc3ocnc3c2)nc2c(C(=O)N[C@H](C3CC3)C(F)(F)F)cnn12 [III-109],–,–,*** (greater than 20% Gcase activation),+++ (Gcase activation greater than 60%)
Cc1cc(-c2ccc3ocnc3c2)nc2c(C(=O)N[C@@H](C3CC3)C(F)(F)F)cnn12 [III-110],–,–,*** (greater than 20% Gcase activation),+++ (Gcase activation greater than 60%)
Cc1cc(-c2cccc(F)c2)nc2c(C(=O)NC(C3CC3)C(F)(F)F)cnn12 (stereo not drawn) [III-111],–,–,*** (greater than 20% Gcase activation),+++ (Gcase activation greater than 60%)
